Test results: patent publication US20250206779A1, “ANGIOTENSIN-(1-9) ANALOGUE BASED ON D AMINO ACIDS, PHARMACEUTICAL COMPOSITIONS AND USES THEREOF” (UNIVERSIDAD DE CHILE, priority 2021, published 2025)
Where a SMILES comes first, the peptide text is derived from it. [ ]: non-standard residue; d: D form.

Experiments:
[1] = test system: spontaneously hypertensive rats (SHR); experiment: Cardiac hypertrophy by morphometry analysis in SHR; type: in vivo, rat; conditions: SHR, 1,200 ng/kg/min, 14 days, left ventricle
Protocol: Experimental animal model. All procedures were performed in accordance with the Guide for the Care and Use of Laboratory Animals published by the U.S. National Institutes of Health (NIH Publication 85 23, 1985) and approved by our Institutional Bioethics Committee. The animals were housed under the continuous professional monitoring of the Medical Veterinary staff in the animal facility of the Pontificia Universidad Católica de Chile, under the following conditions: 12-h light-dark cycle; 21° C. ambient temperature; 50% humidity; adequate ventilation; noise-free environment; and food and water ad libitum. Male spontaneously hypertensive rats (SHR, age 12 weeks) and normotensive Wistar Kyoto rats (WKY, 12 weeks age) were used. […] Systolic blood pressure (SBP), diastolic blood pressure (DBP) and body weight (BW) were measured at the end of the treatment period and the animals were then sacrificed.
Measurement of cardiac hypertrophy by morphometry analysis. […] Cardiomyocyte size (area and perimeter) was determined as described by Ocaranza et al. (J. Hypertens. 2010; 28:1054-1064). […]

[2] = test system: isolated hearts from adult male Sprague-Dawley rats; experiment: Infarct size in isolated hearts subjected to ischemia/reperfusion (Langendorff, TTC staining); design: species or system rat; conditions: 50 nM peptide in reperfusion, 30 min global ischemia, ex vivo
Protocol: The cardioprotective effects of retro-inverse angiotensin-(1-9) were also investigated in isolated hearts from adult male Sprague-Dawley rats (250-300 g) subjected to ischemia/reperfusion (I/R) using a Langendorff procedure. Rats were anesthetized with pentobarbital [80 mg/kg intraperitoneally (i.p.)] and heparin 100 U/kg was injected into the right atria. Hearts were rapidly harvested and perfused through the aorta with Krebs-Henseleit solution containing NaCl 128.3 mM, KCl 4.7 mM, CaCl2 1.35 mM, MgSO4 1.1 mM, NaHCO3 20.2 mM, NaH2PO4 0.4 mM and glucose 11.1 mM, pH 7.4 (equilibrated with a gas mixture of 95% O2 and 5% CO2 at 37° C.), using a peristaltic pump (Gilson Miniplus 3, France). A latex balloon connected to a pressure transducer was placed through the left atrium and mitral valve into the left ventricle. The balloon was filled with saline to determine isovolumetric intraventricular pressure. Perfusion flow was 10-14 mL/min. Hearts were placed in a heated chamber and paced at 240-300 beats/min with platinum electrodes, using a Grass stimulator (pulses of 5V, 1 ms). […] The infarct size was determined using 2,3,5-triphenyltetrazolium chloride (TTC) staining. […]

[3] = Stability in human serum determined by HPLC; type: in vitro ADME; conditions: male, 48 h incubation, 37° C., read-out: degradation after incubation with human serum
Protocol: The retro-inverse peptides were dissolved in PBS to obtain a final concentration of 1 mM. From this stock, an aliquot of 50 μL was taken and diluted to 450 μL of human serum (Sigma Aldrich from human male AB plasma, USA origin, sterile-filtered) at 37° C. under agitation, to obtain an initial concentration of […] and incubated for 48 h. Aliquots of 50 μL were extracted at 0, 5, 10 min and 1, 3, 6, 24 and 48 h and added to 200 μL of methanol at 4° C. for 30 min to precipitate serum proteins. The samples were then centrifuged at 13,000 g in Hermle Cooling Centrifuge Z 326 K 311.00 V01 at 4° C. for 30 min. The supernatants (approximately 200 μL) were obtained, placed in vials, and then analyzed by HPLC. All analyzes were performed on the Perkin Elmer auto sampler flexo HPLC, using a reverse phase 4.6×100 mm column with a particle size of […] (Waters XBridge Peptide BEH C18 Column). Mobile phase A was 100% acetonitrile and phase B was TFA 0.0004% in Milli-Q water. The initial composition of eluent was 5% A and 95% B for 1 min and then a linear gradient to reach 100% A in 19 min and then return to the initial composition in 4 min, with a total run time of 25 min. The eluent flow was 0.9 mL/min and the temperature of the column was adjusted to 26° C. L measurement was performed at a UV signal of 220 nm wavelength. Where 50 μL was injected per sample. Peptides were identified based on their retention time in the respective chromatogram obtained in the Chromera-HPLC flexar program.

CC[C@@H](C)[C@@H](NC(=O)[C@@H](Cc1c[nH]cn1)NC(=O)[C@H]1CCCN1C(=O)[C@@H](Cc1ccccc1)NC(=O)[C@H](N)Cc1c[nH]cn1)C(=O)N[C@H](Cc1ccc(O)cc1)C(=O)N[C@@H](C(=O)N[C@H](CCCNC(=N)N)C(=O)N[C@H](CC(=O)O)C(=O)O)C(C)C [retro-inverse angiotensin-(1-9), NH2-^DH^DF^DP^DH^DI^DY^DV^DR^DD-COOH] (H-[dH][dF][dP][dH][dI][dY][dV][dR][dD]-OH)
increase of area of cardiomyocytes induced by hypertension [1]: reversed the increase
increase of perimeter of cardiomyocytes induced by hypertension [1]: reversed the increase
decrease of infarct size [2]: around 70%
metabolised at 48 h, 20 μM [3]: < 20%
